Reference: patent US20250339569A1, “CARBONIC ANHYDRASE IX LIGANDS” (priority 2021, published 2025)
Read-outs that look alike come from different tables or passages of the source.

Experiments:
[1] = Biodistribution study (SPECT/CT) in HT-29 tumor-bearing mice; format: in vivo, NMRI nude mice; conditions: female, NMRI nude, mouse, in vivo, iv, total radioactivity, HT-29, In-111-labeled, Mean ± SEM
Description: (§1) The effect on tumor uptake of prior injection of gelofusine for kidney protection was investigated in mice bearing the SK-RC-52 tumor. Biodistribution was evaluated using in vivo SPECT/CT imaging. Prior to the in vivo study the compounds (ligands) were initially radiolabeled with In-111 and the stability of radiolabeled compounds was evaluated in buffer at three different timepoints.
(§2) The study was performed in female NMRI nude mice (approximately 6 weeks of age) from Janvier Labs, France, housed up to 5 mice per cage.
(§3) The column was washed with 2 mL water, and then the final product was eluted from the column in EtOH solution (50%) • The sample was formulated in PBS to the final concentration of 150 MBq/mL and 5 nmol/mL.
(§4) SK-RC-52 cells were cultured in RPMI 1640 with GlutaMax-I (Thermo Fisher Scientific #61870044) supplemented with 10% fetal bovine serum+1% penicillin/streptomycin, harvested, washed twice in RPMI 1640 and resuspended at 2×10^7 cells/mL in RPMI 1640. HT-29 cells were cultured in McCoy's 5a Medium Modified (Sigma #M9309). For inoculation of HT-29 cells, cells were harvested, washed twice in PBS and resuspended at 5×10^7 cells/mL in PBS. Cells were kept on ice until inoculation.
(§5) Animals were anaesthetized (isoflurane, 2-4% in ambient air supplemented with 100% 02) prior to tumor inoculation. The tumor cells (100 μL suspension of either SK-RC-52 cells (2×10^6 cells/animal) or HT-29 cells (5×10^6 cells/animal)) were subcutaneously inoculated in the right flank using a 1-mL syringe equipped with a 27 G needle. Tumor growth and animal weight were measured twice per week. Tumor size was measured by caliper and the volume was estimated using the following formula: 0.52×(length×width^2). When tumor sizes reached 150-250 mm^3, animals were randomized into groups (n=3) of similar average tumor volume and body weight.
(§6) Animals were injected intravenously with In-111-labeled compounds (single bolus, 22.3-31.2 MBq, ˜1 nmol ligand, injection volume: 100 μL) in the lateral tail vein using a 29 G syringe.
(§7) CT was performed with helical scan, 300 ms exposure, reconstruction resolution of 250 μm. SPECT was performed with multi-pinhole scan and a 30 s frame time. For the quantification of the radioactivity uptake, regions of interests (ROIs) were drawn over the tumor, kidney, liver, and heart (estimate of blood) identified on the images. Uptake was expressed as percent of injected dose per gram tissue (% ID/g).

HT-29 tumor = assay: as above; format: in vivo, NMRI nude mice; conditions: HT-29, In-111-labeled
Description: as §1, §2, §3, §4, §5, §6, §7

mouse CAIX = biological target: T1, mouse CAIX (Mus musculus, UniProt Q8VHB5); assay: Radioligand saturation binding on CHO-msCAIX
T1 construct: host or cells: CHO-VGT / CHO cells
Description: After attainment of equilibrium, the cells were harvested, and the bound fraction of the compounds was measured. The resulting saturation binding data were analyzed using Graph Pad Prism 8.3.
CHO cells transfected with human, dog, and mouse CAIX (CHO-huCA9 T04J-1/20 K1, CHO-dogCA9 T05J-9/20 K4, CHO-murCA9 T05J-3/20 K4) were obtained from InSCREENex (Germany).
A molar excess of 3BP-3565 was used as a blocking peptide to assess non-specific binding in autoradiographic studies. 3BP-3565 binds with a similar affinity to CAIX and blocks binding sites of test compounds. For the blocking solution, a 10 mM stock solution of 3BP-3565 was prepared by dissolution in DMSO.
CHO cells were maintained in Ham's medium supplemented with 10% fetal bovine serum, 2 mM L-glutamine, 100 U/mL Penicillin and 0.1 mg/mL streptomycin under standard cell culture conditions. The cells were grown in uncoated cell culture flasks (150 cm^2, Biochrom) to subconfluence and then split 1:2-1:3. Approximately 24 hours before the assay, cells were detached by incubation with Accutase and carefully tapping the flasks. Detached cells were resuspended in medium and collected by centrifugation (300 g, 5 min, RT). Cell pellets were resuspended in cell culture medium and counted using a particle counter (CASY Model TT, Scharfe Systems, Germany). Cell concentrations were adjusted to 3×10^5 mL^−1, and 1.000 μL per well of the suspension were dispensed into poly-D-lysine-coated flat-clear-bottom 24 well plates.
Compound radiolabeling was performed as follows. […] Then, 25 mg/mL methionine in 1 M sodium acetate buffer pH 5 was added at a final concentration of 0.1 M sodium acetate. Subsequently, the mixture was heated to 80° C. for 25 min, followed by cooling for 5 minutes. Finally, 20 μL of 200 mg/mL ascorbic acid solution, 2.5 μL of 5 mg/mL DTPA and 2.5 μL of 5% TWEEN-20 per 100 μL reaction mixture were added, resulting in the concentrated study solution. For quality control, an aliquot of the labeling solution was diluted 1:40 with 0.1% TWEEN-20 in 0.1 M sodium acetate buffer pH 5. Five microliters of the diluted labeling solution were injected onto a Poroshell SB-C18 2.1×50 mm, 2.7 μm column. HPLC analysis was performed as follows: Gradient A: H2O, 0.1% TFA, Gradient B: Acetonitrile (MeCN), gradient from 5% B to 70% B within 15 min, flow rate of 0.5 mL/min; detector: NaI, DAD 215 nm. The peak eluting with the dead volume represents free radionuclide, the peak eluting with the ligand-specific retention time as determined with a non-labeled sample represents the radiolabeled compound.
The radioligand saturation binding on CHO-msCAIX was determined as follows. […] Their associated radioactivity was counted using a gamma counter and normalized to the measured protein concentration of each well. […]

T1 sequence (Q8VHB5 32-437): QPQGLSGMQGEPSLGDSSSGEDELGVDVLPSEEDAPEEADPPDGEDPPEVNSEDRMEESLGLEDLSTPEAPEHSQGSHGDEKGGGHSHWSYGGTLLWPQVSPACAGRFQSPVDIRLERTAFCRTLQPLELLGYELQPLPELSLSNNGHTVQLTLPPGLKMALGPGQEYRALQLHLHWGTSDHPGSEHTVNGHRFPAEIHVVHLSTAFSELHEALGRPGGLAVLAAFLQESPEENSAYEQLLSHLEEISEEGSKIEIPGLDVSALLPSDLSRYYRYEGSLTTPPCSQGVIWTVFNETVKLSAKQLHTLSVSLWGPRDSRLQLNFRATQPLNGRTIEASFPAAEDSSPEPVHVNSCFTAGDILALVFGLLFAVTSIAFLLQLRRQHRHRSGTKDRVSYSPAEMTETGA

SMILES | tissue uptake at 4 h ([1]; read-out: Blood uptake at 4 h p.i.) [%ID/g] | tissue uptake at 24 h ([1]; read-out: Kidney uptake at 24 h p.i.) [%ID/g] | tissue uptake at 4 h ([1]; read-out: Liver uptake at 4 h p.i.) [%ID/g] | Time to peak uptake in tumor (HT-29 tumor) [h] | % remaining tumor uptake at 24 h p.i. (HT-29 tumor; Mean ± SEM) [%] | Kd (mouse CAIX) [nM] | Mean pKd ± SD (mouse CAIX; CHO-msCAIX, single experiment)
CC(C)C[C@@H]1NC(=O)[C@H](Cc2cccc(NC(=O)CCCS(N)(=O)=O)c2)NC(=O)[C@H](CC(=O)O)NC(=O)[C@H]2CCCN2C(=O)[C@H](CCC(=O)O)NC(=O)[C@@H](NC(=O)[C@H](CCC(N)=O)NC(=O)CN2CCN(C(=O)CN3CCN(CC(=O)O)CCN(CC(=O)O)CCN(CC(=O)O)CC3)CC2)CSCc2cccc(c2)CSC[C@@H](C(N)=O)NC(=O)[C@H](CO)NC(=O)[C@H](Cc2c[nH]c3ccccc23)NC(=O)[C@H]([C@@H](C)O)NC1=O [DPI-4452, DOTA-PPAc-Gln-[Cys(3MeBn)-Glu-pro-Asp-Af3(Cpsu)-Leu-Thr-Trp-Ser-Cys]-NH2] | 0.04 ± 0.002 | 1.41 ± 0.11 | 0.12 ± 0.005 | 2 | 65.8 ± 3.8 | – | –
CC(C)C[C@@H]1NC(=O)[C@H](Cc2cccc(NC(=O)CCCS(N)(=O)=O)c2)NC(=O)[C@H](CC(=O)O)NC(=O)[C@H]2CCCN2C(=O)[C@H](CCC(=O)O)NC(=O)[C@@H](NC(=O)[C@H](CCC(N)=O)NC(=O)CN2CCN(C(=O)CN3CCN(CC(=O)O)CCN(CC(=O)O)CCN(CC(=O)O)CC3)CC2)CSCc2cccc(c2)CSC[C@@H](C(N)=O)NC(=O)[C@H](CO)NC(=O)[C@H](Cc2c[nH]c3ccccc23)NC(=O)[C@H]([C@@H](C)O)NC1=O [[^111In]In-DPI-4452, metal not drawn] | – | – | – | – | – | 63.1 | 7.2
